From US11969402B2, “Compositions and methods for skin rejuvenation” (THE JOHNS HOPKINS UNIVERSITY, priority 2019, dated 2024)

Tests used:
[1] = test system: normal human keratinocytes; experiment: Transcriptome and proteome comparison of keratinocytes treated with Poly (I:C) or RA; type: cell-based; conditions: for identical gene transcripts inhibited by Poly (I:C) and RA: overlap of top ranked 100 downregulated transcripts; for identical gene transcripts induced by Poly (I:C) and RA: overlap of top ranked 100 upregulated transcripts; for overlap of inhibited proteins between Poly (I:C) and RA: top ranked 100 downregulated proteins; for overlap of induced proteins between Poly (I:C) and RA: top ranked 100 upregulated proteins
Source text: Microarray analysis. RNA isolated from keratinocytes with or without Poly (I:C) (GSE92646) and mouse wound tissues from wild type (C57BL/6NJ) and Tlr3^−/− with BMS493 and RA were submitted to the JHMI Deep Sequencing & Microarray core for Affymetrix® Human Exon 1.0ST and mouse microarray chip according to manufacturer's protocols. Raw gene expression signals in the form of Affymetrix CEL files were extracted and normalized with Partek® Genomics Suite™ software using the Robust Multichip Analysis (RMA) algorithm. Genes were ranked according to fold change of the intervention, and referred to as top or bottom induced if they are at the highest fold change (top) or lowest fold change (bottom). The significance of gene expression was measured by student's t-test analysis. These datasets generated during the current study are available in the NCBI GEO repository as listed above.
Proteomic analysis. For in vivo samples, wild-type and Tlr3^−/− unwounded and wounded skin where wound regions (center and edge area) were prepared for analysis. For in vitro samples, human primary scalp keratinocytes treated with 0.1 μM retinoic acid (RA) or 0.5 μg per ml Poly (I:C) and control were used. In vivo and in vitro samples were lysed in 5% sodium deoxycholate after washing in phosphate-buffered saline. Lysates were washed, reduced, alkylated and trypsinolyzed on filter as described by Wisniewski et al.^35 and Erde et al.^36. Tryptic peptides were separated on a nanoACQUITY UPLC analytical column (BEH130 C18, 1.7 μm, 75 μm×200 mm, Waters) over a 165 min linear acetonitrile gradient (3-40%) with 0.1% formic acid on a Waters nano-ACQUITY UPLC system, and analyzed on a coupled Thermo Scientific Orbitrap Fusion Tribrid mass spectrometer as described by Williamson et al.^37. Full scans were acquired at a resolution of 120,000, and precursors were selected for fragmentation by higher-energy collisional dissociation (normalized collision energy at 30%) for a maximum 3-second cycle. Tandem mass spectra were searched against a UniProt human reference proteome using MS Amanda algorithm described by Dorfer et al.^38 with a maximum precursor mass error tolerance of 10 ppm. Carbamidomethylation of cysteine and deamidation of asparagine and glutamine were treated as static and dynamic modifications, respectively. Resulting hits were validated at a maximum false discovery rate of 0.01 using a semi-supervised machine learning algorithm Percolator developed by Käll et al.^39. Protein abundance ratios were measured by comparing the MS1 peak volumes of peptide ions, whose identities were confirmed by MS2 sequencing as described above. The Label-free quantifications were performed using an aligned AMRT (Accurate Mass and Retention Time) cluster quantification algorithm Minora (Thermo Fisher Scientific, 2017). Pathway and gene ontology analysis were performed with Qiagen Ingenuity, Panther GO and DAVID databases, as described by Kramer et al.^40, Mi et al.^41, and Huang et al.^42, respectively.

[2] = test system: wounded skin; experiment: Retinoid levels in mouse skin (LC-MS/MS, HPLC-UV); type: in vivo; conditions: for ROL and RE in wounded skin: WT and Tlr3−/− mice
Procedure: Wound Induced Hair Neogenesis (WIHN). All experiments were followed with the present inventors' WIHN protocol^1,9. Briefly, hair was shaved and a 1.2 cm^2 full-thickness skin on the backs of 21-day old (telogen) male and female mice was removed by sterile scissors. A single treatment of RA (30 μl) (0.1 μg per mouse) (Millipore Sigma, R2625) and BMS493 (30 μl) (0.1 μg per mouse) (Cayman Chemical, #17418) was applied topically onto open wound on WD1 of Tlr3^−/− and WT mice, respectively. Poly (I:C) (50 μl) (5 μg per mouse) (Invivogen, tlrl-pic) was injected under the healed scab on WD3 of WT mice as described before^9,34. On WD20-24, numbers of regenerated hair follicles were visualized and quantified in the re-epithelialized skin by non-invasive confocal scanning laser microscopy (CSLM) (Caliber I.D., VIVASCOPE 1500) as published^1,9. As a vehicle (Control), ethanol (EtOH), dimethylsulfoxide (DMSO), or PBS was treated for RA, BMS493, and Poly (I:C), respectively.
Tissue preparation from wounded mice. Wild type (C57BL/6J and 6NJ) and Tlr3^−/− mice were wounded as did in WIHN experiments. On PWD11 when wounds are closed, the center and edge of the wound was separated by scissors. Skin samples were immediately frozen and saved in liquid nitrogen for further analysis.
Determination of Retinoid Levels. For in vitro samples, human scalp keratinocytes were incubated with 0.5 μg per ml of Poly (I:C) for 48 hrs or siRNAs-transfected cells were incubated with 0.1 μg per ml of Poly (I:C) for 48 hrs. For in vivo samples, skin was analyzed from wild-type and Tlr3^−/− unwounded and wounded skin where wound regions (center and edge area) were cut by scalpel. Human skin was analyzed for retinoids with and without CO2 laser treatment as described. All samples were frozen at collection and stored at −80° C. until extraction. For in vitro experiments, media and cell pellets were analyzed separately. For in vivo experiments, tissues were homogenized in saline. Extraction of retinoids was performed under yellow lights using a two-step liquid-liquid extraction that has been described in detail previously using 4,4-dimethyl-RA as an internal standard for RA and retinyl acetate as an internal standard for retinol and total retinyl ester^43-46. For the extraction of retinoids, 1 to 3 ml of 0.025 M KOH in ethanol was added to tissue homogenates (in vivo) or cell culture (in vitro) samples. Then 10 ml hexane (for in vivo tissue sample) or 5 ml hexane (for in vitro cell culture sample) was added to the aqueous ethanol phase. The samples were vortexed and centrifuged for 1 to 3 min at 1000 rpm in a Dynac centrifuge (Becton Dickinson) to facilitate phase separation and pellet precipitated protein. The hexane (top) phase containing nonpolar retinoids (ROL and RE) was removed. 4 M HCl (60-180 μl) was added to the remaining aqueous ethanol phase, samples were vortexed, and then polar retinoids (RA) were removed by extraction with a second 5-10 ml aliquot of hexane as described above. Organic hexane phases were evaporated under nitrogen while heating at approximately 25 to 30° C. in a water bath (model N-EVAP 112, Organomation Associates, Berlin, MA, USA). All samples were resuspended in 60 μl acetonitrile. Only glass containers, pipettes, and syringes were used to handle retinoids.
Levels of RA were determined by liquid chromatography-multistage tandem mass spectrometry (LC-MRM^3) which is an LC-MS/MS method utilizing two distinct fragmentation events for enhanced selectivity^43. RA was measured using a Shimadzu Prominence UFLC XR liquid chromatography system (Shimadzu, Columbia, MD) coupled to an AB Sciex 5500 or 6500+ QTRAP hybrid triple quadrupole mass spectrometer (AB Sciex, Framingham, MA) using atmospheric pressure chemical ionization (APCI) operated in positive ion mode as previously described^43. […]

Compound	identical gene transcripts inhibited by Poly (I:C) and RA [1]	identical gene transcripts induced by Poly (I:C) and RA [1]	overlap of inhibited proteins between Poly (I:C) and RA [1]	overlap of induced proteins between Poly (I:C) and RA [1]	tissue RA levels prior to morphogenesis ([2]; Tlr3−/− mice, exogenous RA)	ROL and RE in wounded skin ([2]; RA vs ethanol)	amount of RA during wound healing ([2]; Tlr3−/− mice)	ROL and RE in wounded skin ([2]; Poly (I:C) vs PBS)	amount of RA during wound healing ([2]; WT mice)	RA in center of the wound before morphogenesis ([2]; wild type mice, PWD11, center vs edge, not in Tlr3−/− mice)
CC1=C(/C=C/C(C)=C/C=C/C(C)=C/C(=O)O)C(C)(C)CCC1 [RA, all-trans-retinoic acid]	18%	13%	36%	61%	measurable increases	not significant				
Polyinosinic-polycytidylic acid [Poly (I:C)]	18%	13%	36%	61%			much less so	not significant	substantially increased	accumulates more RA
